Assay results as given in article PMC5405622 (Drug Metabolism Letters, 2016).
Where “and” joins values, the source holds several entries; their conditions need not be identical. Equal values may be shown once. Read-outs that look alike come from different tables or passages of the source. One block for each molecule: values may come before it.

Tests used:
[1] = Single-pass isolated perfused rat liver; format: in vitro ADME; details: for Propranolol (cassette) ER: propranolol 2 to 4 μM
[2] = Unbound fraction in liver perfusate and liver homogenate; format: in vitro ADME, rat
Unbound fraction in rat = format: in vitro ADME
[3] = not given; remark: listed apart in the source
[4] = Intrinsic clearance in human hepatocytes; format: in vitro ADME; details: human hepatocytes 0.5 million cells/mL, 0.5 μM, scaled
[5] = Intravenous bolus and infusion pharmacokinetics in Sprague-Dawley rats; format: in vivo, rat; details: for Clearance relative to hepatic blood flow: dosed in rat; for Plasma CL: n = 3; for In vivo rat CLp IV bolus: plasma
MDCK parent cells = experiment: MDCK permeability and efflux; format: in vitro ADME; details: for MDCK A→B Papp: apical to basolateral
PAK1 = PAK1 (Homo sapiens, UniProt Q13153); experiment: PAK1 inhibition constant; format: biochemical; details: read-out: PAK1 Ki
PAK1, sequence (Q13153 whole entry): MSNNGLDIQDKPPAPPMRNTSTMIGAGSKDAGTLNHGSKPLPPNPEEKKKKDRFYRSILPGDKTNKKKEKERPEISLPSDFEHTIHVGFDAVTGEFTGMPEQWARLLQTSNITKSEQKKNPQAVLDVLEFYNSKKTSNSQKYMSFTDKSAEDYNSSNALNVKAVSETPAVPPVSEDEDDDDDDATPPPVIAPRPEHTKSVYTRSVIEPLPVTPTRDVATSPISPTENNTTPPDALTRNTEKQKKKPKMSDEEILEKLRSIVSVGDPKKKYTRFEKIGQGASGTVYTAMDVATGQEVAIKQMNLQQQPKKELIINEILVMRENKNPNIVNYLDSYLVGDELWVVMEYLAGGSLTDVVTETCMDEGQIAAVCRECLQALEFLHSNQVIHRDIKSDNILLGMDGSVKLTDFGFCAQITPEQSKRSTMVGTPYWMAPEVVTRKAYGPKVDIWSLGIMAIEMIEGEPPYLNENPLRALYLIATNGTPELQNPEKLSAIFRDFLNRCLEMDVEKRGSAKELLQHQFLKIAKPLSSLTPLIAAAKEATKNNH

[6] = Intrinsic clearance in rat hepatocytes; format: in vitro ADME; details: rat hepatocytes 0.5 million cells/mL, 0.5 μM, scaled
Log D at pH 7.4 = format: physicochemical; details: octanol/buffer
[7] = Intrinsic clearance in human liver microsomes; format: in vitro ADME; details: human liver microsomes 0.5 mg/mL, 0.5 μM, scaled
[8] = system: cryo-preserved rat hepatocytes; details: cited from earlier work
Kinetic solubility = format: physicochemical
[9] = Intrinsic clearance in rat liver microsomes; format: in vitro ADME; details: rat liver microsomes 0.5 mg/mL, 0.5 μM, scaled
Oct1/2 = experiment: Blood clearance in Oct1/2 double KO and wild-type mice with or without ABT; format: in vivo, mouse; details: for Reduction of blood clearance by ABT: ABT 100 mg/kg oral 2 h before GNE1 2 mg/kg IV
[10] = system: N-acetyltransferase (rat S9); experiment: Acetyl-CoA-dependent N-acetylation in rat liver S9; format: in vitro ADME; details: S9 2 mg/mL, acetyl-CoA 1 mM
cytochrome P450 (rat S9) = experiment: NADPH-dependent; format: in vitro ADME; details: S9 2 mg/mL, NADPH 1 mM
[11] = read-out: Plasma concentration at Cmax; cited from earlier work
mouse hepatocytes = experiment: Metabolism of GNE1 in mouse hepatocytes with or without ABT; format: in vitro ADME; details: ABT 500 μM, GNE1 5 μM
propranolol metabolism = experiment: In vitro inhibition of propranolol metabolism by quinine; format: in vitro ADME; details: quinine 1-10 micromolar, in vitro (data not shown)
[12] = Stability of GNE4 in rat intestinal S9 and feces; format: in vitro ADME; details: rat intestinal S9 and feces (data not shown)

SMILES: CC(C)NCC(O)COc1cccc2ccccc12 (stereo not drawn) [propranolol, reference compound]
Propranolol (cassette) ER ([1]; cassette with GNE1 0.3 μM and Quinine (10 μM)): 0.45
Propranolol (cassette) ER ([1]; cassette with GNE1 Cin = 0.3 μM): > 0.95
Propranolol (cassette) ER ([1]; cassette with GNE1 Cin = 0.3 μM, listed as Propranolol): >0.95
Propranolol (cassette) ER ([1]; cassette with GNE1 Cin = 8 μM): 0.91

SMILES: Nn1nnc2ccccc21 [ABT, 1-aminobenzotriazole]
Cmax [11]: 752 µM
Inhibition of oxidative and N-acetylation metabolism of GNE1 (mouse hepatocytes): completely inhibited

SMILES: C=C[C@H]1C[N@@]2CC[C@H]1C[C@H]2[C@H](O)c1ccnc2ccc(OC)cc12 [quinine]
Effect on propranolol metabolism (propranolol metabolism): inhibit propranolol metabolism

More lines, main results first:

fu perfusate ([2]; isolated perfused liver perfusate (4% BSA, 20% bovine red blood cells)): 0.3
fu in liver (corrected) ([2]; liver homogenate, corrected for dilution): 0.3/0.01
fu rat (Unbound fraction in rat): 0.16
Fecal recovery of unchanged GNE1 over 24 hours (BDC rats): 24%
Dose recovery of unchanged GNE1 in bile (BDC rats, 0-4h): 7.8 ± 1.2 % of Total Dosed
Dose recovery of unchanged GNE1 in urine (BDC rats, 0-4h): BQL
Dose recovery of unchanged GNE1 in feces (BDC rats, 0-8h): 5.8 ± 4.2 % of Total Dosed
Dose recovery of unchanged GNE1 in bile (BDC rats, 4-8h): 2.5 ± 0.9 % of Total Dosed
Dose recovery of unchanged GNE1 in bile (BDC rats, 8-24h): 3.9 ± 1.8 % of Total Dosed
Dose recovery of unchanged GNE1 in urine (BDC rats, 8-24h): 2.8 ± 1.0 % of Total Dosed
Dose recovery of unchanged GNE1 in bile (BDC rats, 24-48h): <1 % of Total Dosed
Dose recovery of unchanged GNE1 in feces (BDC rats, 24-48h): 2.2 ± 1.4 % of Total Dosed
Dose recovery of unchanged GNE1 in urine (BDC rats, 24-48h): <1 % of Total Dosed
Total Recovery (24–72 h) of unchanged GNE1 (BDC rats, 24–72 h): 2.2 % of Total Dosed
Dose recovery of unchanged GNE1 in bile (BDC rats, 48-72h): 0 % of Total Dosed
Dose recovery of unchanged GNE1 in feces (BDC rats, 48-72h): <1 % of Total Dosed
Dose recovery of unchanged GNE1 in urine (BDC rats, 48-72h): <1 % of Total Dosed
Overall biliary excretion of unchanged GNE1 (BDC rats, 24 h): ~14%
Recovery of GNE1 in feces during 0–24 hours (BDC rats, 72 h collection experiment): 31 % of Total Dosed
Percentage of GNE1 detected in urine (BDC rats, compared with intact rats): 30%
Total Recovery of unchanged GNE1 (BDC rats, up to 24 hours): 71 % of Total Dosed
Biliary clearance as share of total clearance (cannulated rats, IV): approximately 14%
Renal clearance as share of total clearance (rats, IV): ~16%
GNE1 hepatic ER ([1]; GNE1 Cin = 0.3 μM with Quinine (10 μM)): 0.36
GNE1 hepatic ER ([1]; GNE1 Cin = 0.3 μM, flow 12 mL/min): 0.78
GNE1 hepatic ER ([1]; GNE1 Cin = 8 μM): 0.41
Perfusate Cout ([1]; end of perfusion, Cin = 0.3 μM): 0.07 µM
Total liver concentration of GNE1 ([1]; end of perfusion, Cin = 0.3 μM): 8 µM
Biliary clearance, fold lower than calculated perfusate clearance ([1]; isolated perfused rat liver, Cin 0.3 μM): about 26 fold
Biliary clearance ([1]; isolated perfused rat liver, GNE1 Cin = 0.3 μM): 0.7 mL/min/kg
Biliary clearance ([1]; isolated perfused rat liver, GNE1 Cin = 0.3 μM with Quinine (10 μM)): 0.046 mL/min/kg
Biliary clearance ([1]; isolated perfused rat liver, GNE1 Cin = 8 μM): 0.23 mL/min/kg
kpu,u (intracellular to extracellular ratio of unbound concentrations) ([1]; liver/perfusate, Cin = 0.3 μM): 3.8
Biliary clearance as share of total perfusate clearance ([1]; multiple IPL experiments): less than 5%
Total amount of GNE1 recovered in urine over 24 hours ([3]; intact rats (no bile collection), % of dose): 16% and 15.6% and 15%
Dose recovery of unchanged GNE1 in urine ([3]; intact rats, 0-8 h (one value across 0-4h and 4-8h)): 8.5 ± 2.3 % of Total Dosed
Dose recovery of unchanged GNE1 in urine ([3]; intact rats, 8-24h): 7.1 ± 2.0 % of Total Dosed
Dose recovery of unchanged GNE1 in urine ([3]; intact rats, 24-48h): <1 % of Total Dosed
Dose recovery of unchanged GNE1 in feces ([3]; intact rats, 24-48h (72 h experiment)): 8.4 ± 2.9 % of Total Dosed
Total Recovery (24–72 h) of unchanged GNE1 ([3]; intact rats, 24–72 h): 8.4 % of Total Dosed
Dose recovery of unchanged GNE1 in feces ([3]; intact rats, 48-72h): <1 % of Total Dosed
Dose recovery of unchanged GNE1 in urine ([3]; intact rats, 48-72h): <1 % of Total Dosed
Recovery of GNE1 in feces during 0–24 hours ([3]; intact rats, 72 h collection experiment): up to 91 % of Total Dosed
Total Recovery of unchanged GNE1 ([3]; intact rats, up to 24 hours): 93 % of Total Dosed
N-acetylation as share of total dose ([3]; rat, IV): about 10%
HH CLint [4]: 2.4 mL/min/kg
Clearance relative to hepatic blood flow [5]: greater than hepatic blood flow
CLB (biliary clearance) ([5]; rat, IV bolus, 2 mg/kg): 21.5 ± 6.20 mL/min/kg
CLR (renal clearance) ([5]; rat, IV bolus, 2 mg/kg): 49.7 ± 3.84 mL/min/kg
Terminal half-life ([5]; rat, IV bolus, 2 mg/kg): 1.32 ± 0.43 h
Vss ([5]; rat, IV bolus, 2 mg/kg): 20.5 ± 1.92 L/kg
Plasma CL ([5]; rat, IV bolus, 2 mg/kg): 216 ± 53.0 mL/min/kg
In vivo rat CLp IV bolus ([5]; rat, IV bolus): 216 mL/min/kg
Terminal half-life ([5]; rat, IV infusion 0.57 mg/kg/h): 0.74 ± 0.10 h
Vss ([5]; rat, IV infusion 0.57 mg/kg/h): 4.2 ± 1.2 L/kg and 4.21 ± 1.16 L/kg
Plasma CL ([5]; rat, IV infusion 0.57 mg/kg/h to 90% of steady state): 121 ± 4.35 mL/min/kg
MDCK efflux ratio (MDCK parent cells): 43
MDCK A→B Papp (MDCK parent cells): 0.1 ×10⁻⁶ cm/s
Ki (PAK1): 26 nM
RH CLint [6]: 34 mL/min/kg
Log DpH=7.4 (Log D at pH 7.4): 0.83
HLM CLint [7]: 4.5 mL/min/kg
Kinetic solubility (Kinetic solubility): 157 µM
RLM CLint [9]: 6.1 mL/min/kg
Reduction of blood clearance by ABT (Oct1/2; Oct1/2 double KO mice): 28.2%
Average change of blood clearance between wild-type and transporter KO mice (Oct1/2; regardless of ABT treatment): 56%
Average overall decrease of blood clearance by ABT (Oct1/2; wild-type and double KO mice averaged): 24%
Reduction of blood clearance by ABT (Oct1/2; wild-type mice): 20.5%
SMILES: N[C@H]1CC[C@H](CNc2ncc(Cl)c(Nc3cc(C4CC4)[nH]n3)n2)CC1 [GNE1, N^2-(((1r,4r)-4-aminocyclohexyl)methyl)-5-chloro-N^4-(5-cyclopropyl-1H-pyrazol-3-yl)pyrimidine-2,4-diamine]
Dose recovery of unchanged GNE1 in urine (BDC rats, 4-8h): 30 % of Total Dosed and 30 ± 1.1 % of Total Dosed
Dose recovery of unchanged GNE1 in feces (BDC rats, 8-24h): 18 % of Total Dosed and 18 ± 4.7 % of Total Dosed
CLR (renal clearance) ([5]; rat, IV infusion 0.57 mg/kg/h): 20 ± 1.2 mL/min/kg and 20.2 ± 1.22 mL/min/kg
Uptake rate (CLint, influx) [8]: 11.1 mL/min/g of liver

CLint of N-acetylation in rat S9 [10]: 21 mL/min/kg
fu rat (Unbound fraction in rat): 0.25
CLint of P450 metabolism in rat S9 (cytochrome P450 (rat S9)): <10 mL/min/kg
HH CLint [4]: 4.5 mL/min/kg
Clearance relative to hepatic blood flow [5]: greater than hepatic blood flow
In vivo rat CLp IV bolus ([5]; rat, IV bolus): 160 mL/min/kg
MDCK efflux ratio (MDCK parent cells): 6.2
MDCK A→B Papp (MDCK parent cells): 0.5 ×10⁻⁶ cm/s
Ki (PAK1): 26 nM
RH CLint [6]: 10 mL/min/kg
Log DpH=7.4 (Log D at pH 7.4): -0.2
HLM CLint [7]: 9.1 mL/min/kg
Kinetic solubility (Kinetic solubility): 136 µM
RLM CLint [9]: 8.3 mL/min/kg
SMILES: N[C@H]1CC[C@H](CNc2nccc(Nc3cc(C4CC4)[nH]n3)n2)CC1 [GNE3, N^2-(((1r,4r)-4-aminocyclohexyl)methyl)-N^4-(5-cyclo-propyl-1H-pyrazol-3-yl)pyrimidine-2,4-diamine]

CLint of N-acetylation in rat S9 [10]: 337 mL/min/kg
fu rat (Unbound fraction in rat): 0.22
CLint of P450 metabolism in rat S9 (cytochrome P450 (rat S9)): <10 mL/min/kg
HH CLint [4]: 7.6 mL/min/kg
Clearance relative to hepatic blood flow [5]: greater than hepatic blood flow
In vivo rat CLp IV bolus ([5]; rat, IV bolus): >>hepatic blood flow
MDCK efflux ratio (MDCK parent cells): 13.5
MDCK A→B Papp (MDCK parent cells): 0.4 ×10⁻⁶ cm/s
Ki (PAK1): 22 nM
RH CLint [6]: 91 mL/min/kg
Log DpH=7.4 (Log D at pH 7.4): 0.48
HLM CLint [7]: 8.6 mL/min/kg
Kinetic solubility (Kinetic solubility): 72 µM
RLM CLint [9]: 62 mL/min/kg
SMILES: NC1CCN(c2nc(Nc3cc(C4CC4)[nH]n3)c3sccc3n2)CC1 [GNE2, 2-(4-aminopiperidin-1-yl)-N-(5-cyclopropyl-1H-pyrazol-3-yl) thieno [[3],2-d]pyrimidin-4-amine]

Stability to hydrolysis [12]: stable to hydrolysis
GNE4 amount relative to parent (fold less) in urine, feces and bile combined (BDC rats, over 72 hours): ~8 fold
GNE4 amount relative to parent (fold less) in urine, feces and bile combined ([3]; intact rats, over 72 hours): approximately 13 fold
Amount of GNE4 (N-acetylated metabolite of GNE1) detected in feces ([3]; rat, after IV GNE1, up to 24 hours, % of total dose): 9.5%
SMILES: CC(=O)N[C@H]1CC[C@H](CNc2ncc(Cl)c(Nc3cc(C4CC4)[nH]n3)n2)CC1 [GNE4, N-((1r,4r)-4-(((5-chloro-4-((5-cyclopropyl-1H-pyrazol-3-yl)amino)pyrimidin-2-yl)amino)methyl)cyclohexyl)acetamide]
